Earlier results on 1 compound are cited in patent EP3342399B1, “PHARMACEUTICAL COMPOSITIONS COMPRISING POSACONAZOLE AND MANUFACTURING METHOD” (Abdi Ibrahim Ilac Sanayi ve Ticaret A.S., priority 2016, dated 2018).

Molecules are shown by their SMILES. Read-outs that look alike come from different tables or passages of the source.

As for `CC[C@@H]([C@H](C)O)n1ncn(-c2ccc(N3CCN(c4ccc(OC[C@@H]5CO[C@@](Cn6cncn6)(c6ccc(F)cc6F)C5)cc4)CC3)cc2)c1=O` [Posaconazole, 1-[(1S,2S)-1-Ethyl-2-hydroxypropyl]-4-{4-[4-(4-{2-[(2S,4R)-(1,2,4-triazol-1-ylmetyl)-2-(2,4-difluorophenyl)-oxolan-4-ylmetyl]phenyl}piperazin-1-yl)phenyl]}-2,3-dihydro-1,2,4-triazol-3-one], under “BCS Class II”, the permeability result was “high” and the solubility result was “low”. For the same compound, the solubility result (at low pH) is “high”.
